Entries after “also recorded” stand apart in the source; their conditions may differ.
What was measured:
[1] = molecular target: T1, fresh or aggregated α-synuclein (Homo sapiens, UniProt P37840); test: ELISA: binding of biotinylated peptides to coated α-synuclein; details: for binding to coated aggregated α-synuclein: aggregated α-synuclein coated at 500 pmol/well, data not shown; for binding to aggregated versus fresh α-synuclein: range of peptide concentrations, FIG. 3A, B; for binding to aggregated versus fresh α-synuclein / lowest binding concentration detected: α-synuclein coated at 100 pmol/well; for binding to coated fresh and aggregated α-synuclein: α-synuclein coated 20-200 pmol/well, peptides 200 pmol/well, FIG. 2
T1 construct: made in house; host or cells: Escherichia coli
Procedure: Various concentrations of fresh, or aggregated α-synuclein solutions (20-200 pmol/well) were coated on a microtiter plate to dry overnight at 37° C. Aggregated α-synuclein was therefore fixed to the microtiter plate. Aggregated α-synuclein was produced either by aging, dopamine treatment or nitration as indicated on the figures. After washing with PBS containing 0.05% Tween-20 (PBST) and blocking with blocking buffer (PBS containing 2.5% gelatin and 0.05% Tween-20), the biotinylated peptides (200 pmol/well in PBS) or BSA protein (negative control) were added and incubated for 1.5 hrs at room temperature (RT).
Binding of peptides to α-synuclein was quantified using enzyme-linked avidin. Briefly, the plates were washed three times with PBST before the addition of 100 μl/well of extravidin peroxidase diluted at 1:5,000 in blocking buffer. Plates were then washed three times with PBST before the addition of TMB peroxidase substrate. Plates were left for 15 minutes at RT for colour to develop. The reaction was stopped by addition 100 μl/well of 0.5M sulphuric acid and the plates were read at 450 nm in a spectrophotometer.
The effect of peptide concentration on binding to a fixed concentration of α-synuclein was tested by coating microtiter plates as above with 100 or 200 pmol/well of α-synuclein. […] The lowest binding concentration detected for both peptides was 10 pmol/well. […] The lowest binding concentration detected for all three peptides was 10 pmol/well. The binding properties of peptides 6 & 7 to coated fresh or aged α-synuclein were also tested. The binding for peptides 6&7 was detectable when aggregated α-synuclein was coated at 500 pmol/well (data not shown).
The lowest binding concentration detected for dopamine treated α-synuclein was 1 pmol/well. Dopamine treated and nitrated α-synuclein are physiological approximations of the soluble aggregates (or adducts) present during the early stages of synucleinopathic diseases.

[2] = molecular target: T2, α-synuclein aggregates in TET-off regulated SH-SY5Y cells expressing A53T (Homo sapiens, UniProt P37840, A53T); test: Binding to α-synuclein aggregates in cell model; format: cell-based; details: 5 μM for 1, 2 & 4 hrs respectively (OR5, 6, 7); FIG. 13
T2 construct: expressed in transfected cells; host or cells: inducible TET-off regulated SH-SY5Y cells (from Dr. Kostas Vekrellis)
Procedure: This example utilises the inducible TET-off regulated SH-SY5Y system from Dr. Kostas Vekrellis (Foundation For Biomedical Research Academy of Athens). These transfected cells have shown to produce both soluble and insoluble aggregates of α-synuclein. The binding of the OR compounds to α-synuclein aggregates was investigated in this cell model.
Cells expressing A53T were grown on coverslips in media without doxycycline and were differentiated for 7 days by adding retinoic acid at 10 μM. On day 6, cells were treated with 1 μM MG132 in media containing retinoic acid for 24 hrs. The biotinylated-OR5, 6 and 7 were added to the media at 5 μM for 1, 2 & 4 hrs respectively at 37° C.
The media for the cells was then changed with fresh media without peptides and then incubated for another 15 mins for the cells to clear up the unbound peptides to α-synuclein aggregates. The cells were fixed and then treated with 0.2% Triton X in PBS for 15 minutes at RT, and after washing with PBS the blocking buffer, 0.5% BSA, was added.
The cells were stained with anti-α-synuclein antibodies (MAb 211 or FL-140 (Santa Cruz Biotechnology)), and with Streptavidin-FITC (Sigma). α-synuclein aggregates were detected after staining with anti-mouse TRITC (Sigma) or anti-rabbit TRITC (Jackson ImmunoResearch Inc.) as appropriate.

[3] = system: SH-SY5Y neuroblastoma cells; test: Uptake of peptides into living neuronal cells (confocal microscopy); format: cell-based, human; details: peptides at 50 μM
Procedure: SH-SY5Y or M17 neuroblastoma cells were grown in 15 ml medium in confluent flasks before splitting each suspension into petri dishes and allowing cells to grow on coverslips (˜5×10^3/plate) until the next day. Cells were then incubated with different peptides at 50 μM in growing media (total volume=2 ml). […] After 15 min incubation with respective peptides, the cells were washed 3 times with PBS. 2 ml of fixing solution (4% paraformaldehyde in PBS) was added to the cells which were then incubated for 30 min at room temperature. Fixing buffer was removed and 2 ml of permeabilization buffer (0.2% Triton-X-100 in PBS) was added to the cells for 30 min at room temperature and then removed. 2 ml of Blocking buffer was added, left for 1 hour at RT and then removed before addition of 1:100 FITC [Avidin labelled Fluorescein] (Vector Labs) in blocking buffer. Cells were incubated for 1 hour and then washed twice with PBS 0.05% tween. The coverslips were removed and plated with the cell bearing surface downwards on a glass slide, with the addition of a drop of mounting medium (Dako Cytomation). Cells were then visualized under the confocal microscope.

aggregated α-synuclein = molecular target: T3, aggregated α-synuclein (Homo sapiens, UniProt P37840); test: Immunogold assay (EM) on preformed α-synuclein aggregates; format: binding; details: 50 μM aggregated α-synuclein on grids; FIG. 6
T3 construct: made in house; host or cells: Escherichia coli
Procedure: Copper grids were placed on 50 μl of 50 μM aggregated α-synuclein for 1 hour and then washed on 50 μl of PBS for 2 minutes before being placed on 50 μl blocking buffer (Vector) for 1 hour 30 minutes. Grids were washed 5 times with PBS (5 minutes each) and then soaked in either […] peptide 5 (in blocking buffer) or blocking buffer only (negative control) for 1 hour 30 minutes at room temperature. Grids were then washed 5 times with PBS (5 minutes each) and soaked in 50 μl of streptavidin-gold label (1:50) in blocking buffer for 30 minutes at room temperature. Grids were again washed 5 times with PBS (5 minutes each) and soaked in 50 μl of uranyl acetate (2% in distilled water) for 1 minute at room temperature before viewing under a transmission electron microscope.

[4] = molecular target: T4, oligomeric α-synuclein (dopamine treated α-synuclein) (Homo sapiens, UniProt P37840); test: Dot blotting of biotinylated peptides on α-synuclein; format: binding; details: FIG. 11
T4 construct: made in house; host or cells: Escherichia coli
Procedure: The binding of the peptides to the oligomeric α-synuclein was also tested using dot blotting. Monomeric α-synuclein (fresh α-synuclein solution) and oligomeric α-synuclein (dopamine treated α-synuclein) was spotted onto a nitrocellulose membrane. After the samples had been dried at room temperature for 2 hrs, the membranes were blocked, and then anti-α-synuclein MAb 211 or biotinylated-peptides were added to the membranes and incubated for 1.5 hr at room temperature. After gentle washing the membranes were treated with Extravidin-peroxidase or anti-mouse-peroxidase as appropriate. The binding of 211 and the peptides was detected using ECL reagents (Pierce). As shown in FIG. 11 the biotinylated-peptides bind specifically to the oligomeric but not monomeric forms of α-synuclein.

[5] = molecular target: T1, fresh or aggregated α-synuclein; test: ELISA: coated peptides capturing free α-synuclein; format: binding; details: peptides coated 100 pmol/well; α-synuclein 0.001-200 pmol/well; FIG. 4
Procedure: Peptides (100 pmol/well) were coated on a microtiter plate to dry overnight at 37° C. The peptides were therefore fixed to the microtiter plate. After washing with PBS containing 0.05% Tween 20 (PBST) and blocking with blocking buffer (PBS containing 2.5% gelatin and 0.05% Tween 20), various concentrations (0.001-200 pmol/well) of fresh or aggregated α-synuclein solution (produced by aging), or BSA protein (negative control) were added and incubated for 1.5 hrs at RT.
Binding of α-synuclein to peptides was quantified using enzyme-linked antibody specific for α-synuclein. Briefly, the plates were washed three times with PBST before addition of the polyclonal rabbit α-synuclein antibody FL-140 at 1:1000 (in PBS). Plates were then washed three times with PBST before the addition of TMB peroxidase substrate. Plates were left for 15 min at RT for colour to develop. The reaction was stopped by addition 100 μl/well of 0.5M sulphuric acid and the plates were read at 450 nm in a spectrophotometer.

## Gd-DOTA-r-Sar-vva-Sar-K(biotin)-butadiamine [OR6]
[1]
  binding to coated aggregated α-synuclein: detectable
[2]
  binding to α-synuclein aggregates formed inside cells: bind to α-synuclein aggregates formed inside cells
[3]
  incubation after which observed in living cells: 2 h

## Gd-DOTA-r-Sar-vva-Sar-K(biotin)-pentadiamine [OR7]
Aggregated α-synuclein
  binding to preformed α-synuclein aggregates (streptavidin-gold, EM): bind to preformed α-synuclein aggregates; also recorded: binding
[1]
  binding to coated aggregated α-synuclein: detectable
[2]
  binding to α-synuclein aggregates formed inside cells: bind to α-synuclein aggregates formed inside cells
[3]
  incubation after which observed in living cells: 4 h

## Gd-DOTA-r-Sar-vva-Sar-K(biotin)-rrrrrr [OR5]
[4]
  binding to oligomeric versus monomeric α-synuclein (dot blot): binding of biotinylated-peptide OR5 to α-synuclein oligomers
Aggregated α-synuclein
  binding to preformed α-synuclein aggregates (streptavidin-gold, EM): bind to preformed α-synuclein aggregates; also recorded: binding
[5]
  capture of aggregated versus fresh α-synuclein by coated peptide: captured more of the aggregated than the fresh α-synuclein
[1]; FIG. 5
  binding to aggregated α-synuclein generated by aging, dopamine treatment or nitration: highly specific binding to all forms of aggregated α-synuclein
  specificity for dopamine treated α-synuclein: particularly high specificity
[1]; dopamine treated α-synuclein (soluble aggregates)
  lowest binding concentration detected for dopamine treated α-synuclein: 1 pmol/well
[2]
  binding to α-synuclein aggregates formed inside cells: bind to α-synuclein aggregates formed inside cells

## Gd-DOTA-rGtvvaGK(biotin)-rrrrrr [OR1]
[1]
  binding to aggregated versus fresh α-synuclein: more binding to the aggregated than to the fresh α-synuclein
  binding to coated fresh and aggregated α-synuclein: high binding to both fresh and aggregated coated α-synuclein
  lowest binding concentration detected: 10 pmol/well

## Gd-DOTA-rGvvaGK(biotin)-rrrrrr [OR2]
[1]
  binding to aggregated versus fresh α-synuclein: more binding to the aggregated than to the fresh α-synuclein
  binding to coated fresh and aggregated α-synuclein: high binding to both fresh and aggregated coated α-synuclein
  lowest binding concentration detected: 10 pmol/well

## Gd-DOTA-rrrrrrGtvvaGK(biotin)-r [OR3]
[1]
  binding to coated fresh and aggregated α-synuclein: more specific binding to the aggregated α-synuclein

## Gd-DOTA-rrrrrrGvvaGK(biotin)-r [OR4]
[5]
  capture of aggregated versus fresh α-synuclein by coated peptide: captured more of the aggregated than the fresh α-synuclein
[1]
  binding to coated fresh and aggregated α-synuclein: more specific binding to the aggregated α-synuclein

From patent US8613905B2, “Diagnostic agent” (United Arab Emirates University, priority 2007, dated 2013)
